pIC50: −log10 of the molar value.
Test system: 616215-338-R-J1-PDC complex spheroid viability
Test: Anticancer human tumor 616215-338-R-J1-PDC patient-derived colon adenocarcinoma cell line growth inhibition [RAS]
Conditions: for pIC50: curve of first compound; for viability, T/C: stronger effect = lower value
Summary of the method: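 Multi-cell-type spheroids: tumor cells plus HUVEC endothelial cells and mesenchymal stem cells. RAS-pathway inhibitors were combined with targeted agents, each dosed in half-log steps down from clinical Cmax, or from 10 microM when Cmax was unknown.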

[1] = second compound 0.00316 µM, first compound 0.00316 µM
[2] = second compound 0.00316 µM, first compound 0.01 µM
[3] = second compound 0.00316 µM, first compound 0.0316 µM
[4] = second compound 0.00316 µM, first compound 0.1 µM
[5] = second compound 0.00316 µM, first compound 0.316 µM
[6] = second compound 0.00316 µM, first compound 1 µM
[7] = second compound 0.01 µM, first compound 0.00316 µM
[8] = second compound 0.01 µM, first compound 0.01 µM
[9] = second compound 0.01 µM, first compound 0.0316 µM
[10] = second compound 0.01 µM, first compound 0.1 µM
[11] = second compound 0.01 µM, first compound 0.316 µM
[12] = second compound 0.01 µM, first compound 1 µM
[13] = second compound 0.0316 µM, first compound 0.00316 µM
[14] = second compound 0.0316 µM, first compound 0.01 µM
[15] = second compound 0.0316 µM, first compound 0.0316 µM
[16] = second compound 0.0316 µM, first compound 0.1 µM
[17] = second compound 0.0316 µM, first compound 0.316 µM
[18] = second compound 0.0316 µM, first compound 1 µM
[19] = second compound 0.1 µM, first compound 0.00316 µM
[20] = second compound 0.1 µM, first compound 0.01 µM
[21] = second compound 0.1 µM, first compound 0.0316 µM
[22] = second compound 0.1 µM, first compound 0.1 µM
[23] = second compound 0.1 µM, first compound 0.316 µM
[24] = second compound 0.1 µM, first compound 1 µM
[25] = second compound 0.316 µM, first compound 0.00316 µM
[26] = second compound 0.316 µM, first compound 0.01 µM
[27] = second compound 0.316 µM, first compound 0.0316 µM
[28] = second compound 0.316 µM, first compound 0.1 µM
[29] = second compound 0.316 µM, first compound 0.316 µM
[30] = second compound 0.316 µM, first compound 1 µM
[31] = second compound 1 µM, first compound 0.00316 µM
[32] = second compound 1 µM, first compound 0.01 µM
[33] = second compound 1 µM, first compound 0.0316 µM
[34] = second compound 1 µM, first compound 0.1 µM
[35] = second compound 1 µM, first compound 0.316 µM
[36] = second compound 1 µM, first compound 1 µM
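Also: spheroids exposed to agents for seven days before viability readout.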
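For viability, T/C in this document: 100% = DMSO vehicle control viability.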

C=CC(=O)Nc1cc(Nc2nccc(-c3cn(C)c4ccccc34)n2)c(OC)cc1N(C)CCN(C)C + C=CC(=O)N1CCN(c2nc(OCC3CCCN3C)nc3c(F)c(-c4nc(N)cc(C)c4C(F)(F)F)c(Cl)cc23)C(C)C1
pIC50 (second compound 0.00316 µM): < 6.00
pIC50 (second compound 0.01 µM): < 6.00
pIC50 (second compound 0.0316 µM): < 6.00
pIC50 (second compound 0.1 µM): < 6.00
pIC50 (second compound 0.316 µM): < 6.00
pIC50 (second compound 1 µM): < 6.00
viability, T/C [1]: 95.8%
viability, T/C [2]: 105%
viability, T/C [3]: 107%
viability, T/C [4]: 104%
viability, T/C [5]: 106%
viability, T/C [6]: 85.6%
viability, T/C [7]: 93%
viability, T/C [8]: 108%
viability, T/C [9]: 99%
viability, T/C [10]: 101%
viability, T/C [11]: 108%
viability, T/C [12]: 101%
viability, T/C [13]: 101%
viability, T/C [14]: 110%
viability, T/C [15]: 107%
viability, T/C [16]: 99.3%
viability, T/C [17]: 108%
viability, T/C [18]: 96%
viability, T/C [19]: 103%
viability, T/C [20]: 102%
viability, T/C [21]: 88.6%
viability, T/C [22]: 106%
viability, T/C [23]: 128%
viability, T/C [24]: 74.2%
viability, T/C [25]: 105%
viability, T/C [26]: 98.9%
viability, T/C [27]: 99.4%
viability, T/C [28]: 106%
viability, T/C [29]: 109%
viability, T/C [30]: 74.4%
viability, T/C [31]: 96.9%
viability, T/C [32]: 98.3%
viability, T/C [33]: 91%
viability, T/C [34]: 114%
viability, T/C [35]: 110%
viability, T/C [36]: 68.9%

O=C(c1ccc(F)c(F)c1Nc1ccc(I)cc1F)N1CC(O)([C@@H]2CCCCN2)C1 + C=CC(=O)N1CCN(c2nc(OCC3CCCN3C)nc3c(F)c(-c4nc(N)cc(C)c4C(F)(F)F)c(Cl)cc23)C(C)C1
pIC50 (second compound 0.00316 µM): 7.21
pIC50 (second compound 0.01 µM): 7.15
pIC50 (second compound 0.0316 µM): 7.14
pIC50 (second compound 0.1 µM): 7.05
pIC50 (second compound 0.316 µM): 7.17
pIC50 (second compound 1 µM): 7.21
viability, T/C [1]: 114%
viability, T/C [2]: 112%
viability, T/C [3]: 65.3%
viability, T/C [4]: 38.6%
viability, T/C [5]: 12.9%
viability, T/C [6]: 4.36%
viability, T/C [7]: 98.8%
viability, T/C [8]: 108%
viability, T/C [9]: 81.7%
viability, T/C [10]: 36%
viability, T/C [11]: 13.1%
viability, T/C [12]: 6.62%
viability, T/C [13]: 110%
viability, T/C [14]: 115%
viability, T/C [15]: 74.7%
viability, T/C [16]: 40%
viability, T/C [17]: 15%
viability, T/C [18]: 3.89%
viability, T/C [19]: 106%
viability, T/C [20]: 116%
viability, T/C [21]: 82.5%
viability, T/C [22]: 47.5%
viability, T/C [23]: 16.7%
viability, T/C [24]: 6.51%
viability, T/C [25]: 100%
viability, T/C [26]: 105%
viability, T/C [27]: 80.6%
viability, T/C [28]: 33.1%
viability, T/C [29]: 13.9%
viability, T/C [30]: 4.52%
viability, T/C [31]: 102%
viability, T/C [32]: 101%
viability, T/C [33]: 72.2%
viability, T/C [34]: 31.7%
viability, T/C [35]: 18.8%
viability, T/C [36]: 5.31%

— PubChem BioAssay AID2060898 (Molecular Pharmacology Branch, DTP, NCI, 2025)
